# Measurements reported in patent US20100160411A1, “BENZOXATHIINE AND BENZOXATHIOLE DERIVATIVES AND USES THEREOF” (Wyeth, priority 2006, published 2010).
# Read-outs that look alike come from different tables or passages of the source.
# What was measured:
# [1] = molecular target: T1, human 5-hydroxytryptamine-2C (h5-HT2C) receptor (Homo sapiens, UniProt P28335); assay: [125I]DOI binding to membranes of CHO cells expressing the h5-HT2C receptor
# T1 construct: expressed in transfected cells; host or cells: CHO (Chinese Hamster Ovary) cells; membrane preparation
# T1 sequence (P28335 33-458): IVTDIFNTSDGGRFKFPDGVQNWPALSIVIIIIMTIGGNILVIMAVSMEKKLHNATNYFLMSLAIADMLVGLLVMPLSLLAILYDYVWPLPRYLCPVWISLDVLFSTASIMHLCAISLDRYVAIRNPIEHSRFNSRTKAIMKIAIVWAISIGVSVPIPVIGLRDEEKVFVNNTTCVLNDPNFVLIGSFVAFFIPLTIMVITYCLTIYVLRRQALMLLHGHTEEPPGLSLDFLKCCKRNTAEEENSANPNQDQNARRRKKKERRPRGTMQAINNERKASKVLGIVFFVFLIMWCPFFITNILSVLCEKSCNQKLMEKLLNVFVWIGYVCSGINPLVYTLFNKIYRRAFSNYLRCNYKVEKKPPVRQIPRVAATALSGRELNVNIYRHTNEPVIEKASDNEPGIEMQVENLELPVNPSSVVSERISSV
# human 5-HT2C receptor = molecular target: T2, human 5-HT2C receptor (Homo sapiens, UniProt P28335); assay: calcium mobilization (FLIPR) in CHO cells stably expressing the human 5-HT2C receptor; format: cell-based
# T2 sequence (P28335 33-458): T1 sequence (P28335 33-458)
# [2] = read-out: 5-HT2C Binding Ki avg
smiles,measurement,setting,value
"NCC1CSc2cc(F)cc(-c3c(Cl)cccc3Cl)c2O1 (stereo not shown) [Example 1, C-[8-(2,6-Dichloro-phenyl)-6-fluoro-2,3-dihydro-benzo[1,4]oxathiin-2-yl]-methylamine]",Ki,[1]; [2],0.535 nM
same,Emax,"human 5-HT2C receptor; CHO, read-out: 5-HT2C Function EMax (%)",70%
same,EC50,"human 5-HT2C receptor; calcium mobilization, CHO cells, FLIPR, read-out: 5-HT2C Function EC50",356 nM
"NCC1C[S+]([O-])c2cc(F)cc(-c3c(Cl)cccc3Cl)c2O1 (stereo not shown) [Example 2, C-[8-(2,6-Dichloro-phenyl)-6-fluoro-4-oxo-3,4-dihydro-2H-4lambda*4*-benzo[1,4]oxathiin-2-yl]-methylamine]",Ki,[1]; [2],388 nM
"NCC1CS(=O)(=O)c2cc(F)cc(-c3c(Cl)cccc3Cl)c2O1 (stereo not shown) [Example 3, C-[8-(2,6-Dichloro-phenyl)-6-fluoro-4,4-dioxo-3,4-dihydro-2H-4lambda*6*-benzo[1,4]oxathiin-2-yl]-methylamine]",Ki,[1]; [2],11.7 nM
"CSc1ccc2c(c1)C(N1CCN(C)CC1)Cc1ccccc1S2 (stereo not shown) [Methiothepin, reference compound]",Ki,"[1]; reference compounds, 95% confidence interval in parentheses, [125I]DOI radioligand, CHO cell membranes, read-out: Ki",4.6 nM
"COc1cc(CC(C)N)c(OC)cc1I (stereo not shown) [[125I] DOI, reference compound]",Kd,"[1]; saturation binding with increasing concentrations of [125I] DOI, read-out: dissociation constant, KD",0.4 nM
